Reference: patent US20200237759A1, “DOSAGE REGIME AND METHOD FOR TREATING PULMONARY ARTERIAL HYPERTENSION” (Altavant Sciences GmbH, priority 2019, published 2020)

Legend:
[1] = Part 1 SAD plasma pharmacokinetics of KAR5585 and KAR5417 after a single oral dose of KAR5585 (fasting; fed food effect); details: for AUC0-inf Geometric Mean / AUC0-tau Geometric Mean / Cmax Geometric Mean: 400 mg KAR5585 single oral dose
Procedure: Food effect was to be evaluated in Part 1, Period 2. Part 2 was permitted to begin before Part 1 was completed and, in each part, the data from each dose Cohort were to be reviewed for safety before the next dose Cohort was enrolled.
Part 1 had 6 Cohorts of 12 subjects each (for a total of 72 subjects) and Part 2 had 4 Cohorts of 12 subjects each (for a total of 48 subjects). In Part 1, the 12 subjects in Cohort 3 (400 mg) were studied twice, once under fasting conditions (Period 1) and once under fed conditions (Period 2) for food-effect assessment.
Pharmacokinetic data were to be summarized descriptively.

[2] = Safety and tolerability in healthy adult subjects (Study KAR5585-101); type: in vivo, human
urine 5-HIAA/24 hours = assay: Part 2 MAD biomarker: urine 5-HIAA/24 hours change from Day 1; type: in vivo, human; details: Days 7 and 14, all dose groups
Text: (§1) Biomarkers were to be evaluated in Part 2 by measuring concentrations of serotonin (5-hydroxytryptamine [5-HT]) in serum and 5-hydroxyindoleacetic acid (5-HIAA) in plasma and urine. As well, the relationship of biomarkers to PK parameters was to be evaluated.
(§2) The biomarker analysis was to be based on the Biomarker Population (all subjects with evaluable biomarker measurements at baseline [Day 1 predose] and at least one after dosing [Day 7 or Day 14]).
(§3) Biomarker data were to be collected only in Part 2. The following biomarkers were to be analyzed: • Serum 5-HT • Plasma 5-HIAA • Urine 5-HIAA/24 hours (as measured, adjusted, estimated, and per gram creatinine)
Linear regression was to be performed using biomarker changes, absolute and relative (%), from Day 1, at predose on Day 7 or Day 14 versus AUC0-24, Cmax, and Cmin in corresponding study days. The slopes and corresponding 95% confidence intervals (CIs) were to be tabulated. […]
The biomarker portion of the study was conducted in Part 2 MAD using the Biomarker Population. The biomarkers evaluated were serum 5-HT and plasma 5-HIAA, as well as urine 5-HIAA/24 hours (as measured, adjusted, estimated, and per gram creatinine). Urinary 5-HIAA was determined by a validated (21 C.F.R. 58, GLP-compliant) method using liquid chromatographic separation and tandem mass spectrometry detection. […]
Biomarker data were analyzed for each KAR5585 dose separately, for all KAR5585 doses pooled, and for all placebo subjects pooled.
Urine 5 HIAA/24 hour was analyzed in 4 different manners: as measured in the 24-hour collection and (in order to correct for any collection errors) adjusted for creatinine excretion, estimated by the expected creatinine excretion for the subject (as defined in and expressed per gram creatinine. Results were similar for each of the 4 manners and are presented in this report for measured urine. Tables and figures for adjusted, estimated, and per-gram creatinine results are presented in Section 14. […]

[3] = tested on: plasma 5-HIAA (a PD marker of 5-HT synthesis); assay: Part 2 MAD biomarker: plasma 5-HIAA change from Day 1; type: in vivo, human
Text: as §1, §2, §3
The a priori primary biomarker endpoint was to be the change in plasma 5-HIAA concentration on Day 14 from Day 1.
Linear regression was to be performed using biomarker changes, absolute and relative (%), from Day 1, at predose on Day 7 or Day 14 versus AUC0-24, Cmax, and Cmin in corresponding study days. The slopes and corresponding 95% confidence intervals (CIs) were to be tabulated.
Summary statistics (mean, standard deviation [SD], median, minimum [Min], and maximum [Max]) were to be tabulated for each biomarker, by Cohort, with absolute and relative (%) changes from Day 1 predose.
The values were to be tabulated with P values testing whether the difference of changes was equal to 0.
The biomarker portion of the study was conducted in Part 2 MAD using the Biomarker Population. The biomarkers evaluated were serum 5-HT and plasma 5-HIAA, as well as urine 5-HIAA/24 hours (as measured, adjusted, estimated, and per gram creatinine). Urinary 5-HIAA was determined by a validated (21 C.F.R. 58, GLP-compliant) method using liquid chromatographic separation and tandem mass spectrometry detection.
The Biomarker Population consisted of all subjects with evaluable baseline (Day 1 predose) and at least one postdose (Day 7 or Day 14) biomarker measurements.
Biomarker data were analyzed for each KAR5585 dose separately, for all KAR5585 doses pooled, and for all placebo subjects pooled. […]

[4] = 100 mg to 700 mg single dose, 7-fold increase in dose
[5] = 700 mg to 2000 mg single dose, 2.86-fold increase in dose
[6] = KAR5585 100 mg single oral dose, fasted, Cohort 1
[7] = KAR5585 200 mg single oral dose, fasted, Cohort 2
[8] = KAR5585 400 mg single oral dose, fasted, Cohort 3A
[9] = KAR5585 400 mg single oral dose, fed, Cohort 3B
[10] = KAR5585 700 mg single oral dose, fasted, Cohort 4
[11] = KAR5585 1200 mg single oral dose, fasted, Cohort 5
[12] = KAR5585 2000 mg single oral dose, fasted, Cohort 6

## CCOC(=O)[C@@H]1CC2(CCN(c3cc(O[C@H](c4ccc(Cl)cc4-c4ccccc4)C(F)(F)F)nc(N)n3)CC2)CN1 [KAR5585, (S)-ethyl 8-(2-amino-6-((R)-1-(5-chloro-[1,1′-biphenyl]-2-yl)-2,2,2-trifluoroethoxy)pyrimidin-4-yl)-2,8-diazaspiro[4.5]decane-3-carboxylate]
[1]; [4]
  increase in mean AUC0-24: 8.7 fold
  increase in mean AUC0-inf: 8.8 fold
[1]; [5]
  increase in AUC0-24: 1.86 fold
  increase in AUC0-inf: 1.78 fold
[1]; Cohort 3A (Fasting)
  AUC0-inf Geometric Mean: 288 ng·h/mL
  AUC0-tau Geometric Mean: 176 ng·h/mL
  Cmax Geometric Mean: 42 ng/mL
[1]; Cohort 3B (Fed)
  AUC0-inf Geometric Mean: 903 ng·h/mL
  AUC0-tau Geometric Mean: 854 ng·h/mL
  Cmax Geometric Mean: 165 ng/mL
[1]; [6]
  AUC0-12 (Mean): 48.1 ng·h/mL
  AUC0-24 (Geo. Mean): 47.5 ng·h/mL
  AUC0-∞ (Geo. Mean): 47.5 ng·h/mL
  Cmax/D Geo. Mean: 0.132 (ng/mL)/mg
  Cmax/D Mean: 0.139 (ng/mL)/mg
  V2/F Geo. Mean: 5190 L
  V2/F Mean: 5680 L
  t1 Geo. Mean: 1.71 h
  t1 Mean: 1.89 h
[1]; [7]
  AUC0-12 (Geo. Mean): 83.3 ng·h/mL
  AUC0-24 (Geo. Mean): 93.4 ng·h/mL
  AUC0-∞ (Geo. Mean): 95.3 ng·h/mL
  Cmax/D Geo. Mean: 0.0875 (ng/mL)/mg
  Cmax/D Mean: 0.0961 (ng/mL)/mg
  V2/F Geo. Mean: 9610 L
  V2/F Mean: 10300 L
  t1 Geo. Mean: 3.17 h
  t1 Mean: 3.63 h
[1]; [8]
  AUC0-24 (Geo. Mean): 283 ng·h/mL
  AUC0-∞ (Geo. Mean): 288 ng·h/mL
  Cmax/D Geo. Mean: 0.105 (ng/mL)/mg
  Cmax/D Mean: 0.132 (ng/mL)/mg
  V2/F Geo. Mean: 8100 L
  V2/F Mean: 8330 L
  t1 Geo. Mean: 4.04 h
  t1 Mean: 4.08 h
[1]; [9]
  AUC0-24 (Geo. Mean): 876 ng·h/mL
  AUC0-tau Geo. Mean: 854 ng·h/mL
  AUC0-∞ (Geo. Mean): 903 ng·h/mL
  Cmax (Geo. Mean): 165 ng/mL
  Cmax/D Geo. Mean: 0.413 (ng/mL)/mg
  Cmax/D Mean: 0.422 (ng/mL)/mg
  V2/F Geo. Mean: 2730 L
  V2/F Mean: 2780 L
  t1 Geo. Mean: 4.26 h
  t1 Mean: 4.45 h
[1]; [10]
  AUC0-12 (Mean): 392 ng·h/mL
  Cmax (Geo. Mean): 95.2 ng/mL
  Cmax/D Geo. Mean: 0.136 (ng/mL)/mg
  Cmax/D Mean: 0.142 (ng/mL)/mg
  V2/F Geo. Mean: 8390 L
  V2/F Mean: 9120 L
  t1 Geo. Mean: 3.42 h
  t1 Mean: 3.46 h
  tmax (Median): 1.75 h
[1]; [11]
  AUC0-12 (Geo. Mean): 356 ng·h/mL
  AUC0-12 (Mean): 402 ng·h/mL
  AUC0-24 (Geo. Mean): 400 ng·h/mL
  AUC0-tau Mean: 364 ng·h/mL
  AUC0-∞ (Geo. Mean): 406 ng·h/mL
  Cmax/D Geo. Mean: 0.0568 (ng/mL)/mg
  Cmax/D Mean: 0.0692 (ng/mL)/mg
  V2/F Geo. Mean: 14500 L
  V2/F Mean: 16900 L
  t1 Geo. Mean: 3.40 h
  t1 Mean: 3.58 h
[1]; [12]
  Cmax (Geo. Mean): 95.1 ng/mL
  Cmax (Mean): 104 ng/mL
  Cmax/D Geo. Mean: 0.0475 (ng/mL)/mg
  Cmax/D Mean: 0.0522 (ng/mL)/mg
  V2/F Geo. Mean: 20600 L
  V2/F Mean: 25100 L
  t1 Geo. Mean: 4.76 h
  t1 Mean: 4.84 h
  tmax (Median): 2.00 h
[1]; single 100 mg KAR5585, fasting
  time up to which concentrations remained above the LLOQ: up to 4 hours
[1]; single 200 mg KAR5585, fasting
  time up to which concentrations remained above the LLOQ: up to 12 hours
[1]; single 400 mg KAR5585, fasting
  time up to which concentrations remained above the LLOQ: up to 12 hours
[1]; single 700 mg KAR5585, fasting
  time up to which concentrations remained above the LLOQ: up to 12 hours
[1]; single 1200 mg KAR5585, fasting
  time up to which concentrations remained above the LLOQ: up to 12 hours
[2]; 400 mg single oral dose under fed conditions, 9 healthy adult subjects
  tolerability: well-tolerated
[2]; Part 1 and Part 2, all doses
  tolerability throughout the trial: well tolerated throughout the trial
[2]; multiple ascending oral doses 100-400 mg BID up to 14 days, 36 healthy adult subjects
  safety and tolerability: safe and well-tolerated
Urine 5-HIAA/24 hours
  absolute and percent changes from Day 1 in creatinine-normalized urine 5-HIAA versus placebo: statistically significant in favor of KAR5585
[3]; Day 7, any dose group
  mean percent difference of change from Day 1 in plasma 5-HIAA between KAR5585 and placebo: not significant
[3]; each dose group and all doses combined, Day 14
  mean difference of changes from Day 1 to Day 14 in plasma 5-HIAA compared to placebo: statistically significant in favor of KAR5585
